Experimental data reported in patent US20210221890A1, “COMBINATION OF BETA-ADRENERGIC RECEPTOR ANTAGONISTS AND CHECK POINT INHIBITORS FOR IMPROVED EFFICACY AGAINST CANCER” (Health Research, Inc., priority 2015, published 2021).

Tests used:
[1] = tested on: murine pancreatic tumor (Pan02); assay: Pan02 pancreatic tumor growth in C57BL/6 mice; assay type: in vivo
Procedure: To obtain the data presented in FIG. 1, a murine pancreatic tumor (Pan02) was engrafted in C57BL/6 mice. When tumors reached an average size of 50-100 mm^3, tumor bearing mice were assigned to one of four experimental groups and treatment was initiated. Groups of mice received: (1) saline (control), (2) anti-PD-1 antibody (BIO X CELL®, 200 μg/dose every 3 days), (3) the β-adrenergic signaling antagonist propranolol (10 mg/kg daily by intraperitoneal injection) or (4) combination therapy. Tumor growth was monitored and graphed as relative tumor volume compared to each tumor's starting volume. […] The data accordingly indicate that the combination therapy can be effective against pancreatic tumors that are resistant to treatment with the checkpoint inhibitor alone.

4T1 breast cancer model = 4T1 breast cancer model tumor growth in BALB/c mice; assay type: in vivo; settings: 4T1 in BALB/c mice; propranolol started three days before anti-PD-1

`CC(C)NCC(O)COc1cccc2ccccc12` (stereo not drawn) [propranolol] was tested, and the “tumor growth (relative tumor volume compared to starting volume)” value ([1]; Pan02 in C57BL/6 mice, anti-PD-1 200 μg/dose every 3 days, propranolol 10 mg/kg daily i.p., Students t-test) was “neither anti-PD-1 nor propranolol alone caused a statistically significant decrease in tumor growth”, the “efficacy of anti-PD-1 checkpoint inhibition” value ([1]; propranolol added to anti-PD-1, Pan02 tumors in C57BL/6 mice, p<0.05) was “significantly improved the efficacy of anti-PD-1 checkpoint inhibition” and the “tumor growth (absolute and relative tumor volume)” value (4T1 breast cancer model) was “neither propranolol nor anti-PD-1 mAb alone has any impact on tumor growth”.
